Laboratory results published in US9328143B2, “Peptide derivatives and use thereof as carriers for molecules in the form of conjugates” (VECT-HORUS, priority 2008, dated 2016).
Read-outs that look alike come from different tables or passages of the source.

What was measured:
[1] = In situ perfusion in mouse, transport across the blood-retinal barrier; type: in vivo; settings: mouse, in vivo
Text: (§1) This strategy of in situ brain perfusion normally carried out in the rat was adapted for mouse (Dagenais et al., 2000, J Cereb Blood Flow Metab., 20(2), 381-6) in order to broaden its application for evaluating the parameters of transport kinetics at the BBB and the blood-retinal barrier, in transgenic and KO mutant mice for the receptors, enzymes or transporters of active substances. It involves catheterisation of a carotid artery in anaesthetised OF 1 mice and ligature of some branches of this carotid artery (external, thyroidal, occipital) in order to specifically perfuse the internal carotid and pterygopalatine arteries, which are used to evaluate the uptake in the brain of the vectors and conjugates. The catheter makes it possible to replace general circulation by infusion with a well-controlled perfusate (bicarbonate buffer, plasma or blood) by passing by the carotid. Oxygenated Krebs bicarbonate buffer is first used to evaluate the capacities of the vectors and conjugates to gain access to the brain. After catheterisation of the carotid, endogenous blood flow is stopped by sectioning the ventricles of the heart in order to avoid the mixture of buffer with blood and elevation in blood pressure. The duration of the fixed flow-rate perfusion is monitored. The buffer perfusion can be extended up to 20 min, or up to 1 h in the presence of oxygen transporters (washed erythrocytes) for studies of receptor-mediated transport (RMT).
In addition, the Kin of these various peptides, across the blood-retinal barrier (BRB), were also determined. Kin of SEQ ID NO: 11=1.2±0.2×10^−4 ml/s/g Kin of SEQ ID NO: 48=2.4±0.3×10^−4 ml/s/g Kin of SEQ ID NO: 73=0.0±0.0×10^−4 ml/s/g Kin of SEQ ID NO: 72=11.5±3.3×10^−4 ml/s/g Kin of SEQ ID NO: 74=1.8±0.2×10^−4 ml/s/g

[2] = In situ brain perfusion in mouse, transport across the BBB; type: in vivo; settings: mouse, in vivo
Experimental: The in situ brain perfusion technique (in adult male OF1 mouse) is used here to select the best vectors and to provide proof of their mechanism of action for their passage in the brain across the BBB.
Radioactive peptides with high specific radioactivity (SRA, up to 100 Ci/mmol) are prepared by a strategy of acylation of the N-term amine function by tritiated propionic (or propanoic) anhydride or tritiated N-propionyl-succinimide (NPS).
The tritiation reaction of peptide vectors SEQ ID NO: 11 and SEQ ID NO: 48 in the N-term position by propionylation is carried out in DMF (1 mg peptide in 100 μl to 450 μl according to solubility) by adding 0.1 equivalent of tritiated NPS for 5 min at room temperature, then 0.9 equivalent of cold NPS (non-tritiated) for 1 h, and then a new equivalent of cold NPS for 5 h. The reaction medium is then left at 4° C. overnight and purified the following day by HPLC. The SRA for each tritiated peptide is between 5 Ci/mmol and 10 Ci/mmol (theoretically on the order of 7.7 Ci/mmol). The total quantity of radioactivity prepared by synthesis is between 600 μCi and 950 μCi.
The techniques briefly summarised below were developed to study the distribution in the brain of active substances and, in particular, the role of the BBB and, more particularly, of LDLR in the penetration of these molecules in the brain. In situ brain perfusion techniques are among the most technically demanding and the most difficult to perform in the mouse. However, in situ brain perfusion (like in vitro models) enables total control of the composition of the artificial perfusate in order to maintain the cells and vascularisation of the brain under normal physiological and anatomical conditions within the animal, without the disrupting factor of systemic distribution.
as §1
The study of peptide vector SEQ ID NO: 11 made it possible to determine its brain transport or transfer coefficient (Kin). The duration of brain perfusion for these experiments is 5 min with a perfusate flow rate of 2 ml/min. Thus, the calculation of the Kin (volume of distribution over time of brain perfusion) of peptide vector SEQ ID NO: 11 gives a value of 3.5±0.2×10^−4 ml/s/g.

hLDLR [3] = molecular target: T1, hLDLR (Homo sapiens, UniProt P01130); test: FACS on HUVEC: competition between peptides expressed by bacterial viruses and natural ligand LDL; type: binding; design: endogenous in cells; host or cells: HUVEC (human umbilical vein endothelial cells), not genetically modified
Text: Evaluation by FACS on HUVEC of competition between the peptides expressed by the bacterial viruses with affinity for LDLR and its natural ligand LDL.
I—Graph representing the percentage of shift of the fluorescence signal in zone Q2 of graphs A-H obtained by FACS. […] Adding LDL leads to an 85% loss of signal in Q2 in […], indicating competition between the bacterial virus corresponding to peptide sequence SEQ ID NO: 21 and LDL at the site where LDL binds to hLDLR. The equally strong signal in Q2 of the bacterial viruses that express peptide SEQ ID NO: 11 (shift greater than 70% compared to control bacterial viruses) is only slightly shifted (17%) by adding LDL.
First, it is shown that the binding rate of bacterial viruses expressing peptides with affinity for hLDLR (SEQ ID NO: 21 and SEQ ID NO: 11 are used here as examples) is proportional to the level of LDLR expression by HUVEC. FACS experiments carried out in the presence of LDL made it possible to show and quantify a strong shift (85%) of LDL by linear peptides (for example SEQ ID NO: 21), but a small shift (17%) by cyclic peptides (for example SEQ ID NO: 11).

hLDLR [4] = molecular target: T1, hLDLR; test: FACS: binding of bacterial viruses expressing peptides to HUVEC; design: endogenous in cells; host or cells: HUVEC (human umbilical vein endothelial cells), not genetically modified
Experimental: Evaluation by FACS of the interaction between HUVEC and two clones of bacterial viruses expressing peptides, one cyclic (SEQ ID NO: 11), the other linear (SEQ ID NO: 21), with affinity for hLDLR, compared with control bacterial viruses not expressing peptides with affinity for this receptor.
(§2) Qualitative immunocytochemistry was supplemented with quantitative flow cytometry (FACS) with suspended cells (GFP cell line, CHO-hLDLR-GFP cell line, human fibroblasts, HUVEC). These cells were grown in culture medium, mechanically unbound and dissociated (without trypsin), centrifuged, resuspended and incubated in the presence of various bacterial virus clones and anti-LDLR antibody, for 20 min at 4° C. in order to avoid any process of endocytosis. After washings, the bacterial viruses bound to cells were visualised with anti-viral envelope protein antibody. FACS analyses were carried out with a FACSCanto system (Becton Dickinson) using BD FACSDiva software. The number of positive cells was standardised with 5,000 events for each test. The results were expressed in arbitrary units of fluorescence.
(§3) FIGS. 9, 10, 11 correspond to the results obtained for peptides SEQ ID NO: 11, SEQ ID NO: 12 and SEQ ID NO: 21 on cells of the CHO-hLDLR-GFP cell line (FIG. 9), human fibroblasts (FIG. 10) and HUVEC (FIG. 11).

hLDLR [5] = molecular target: T1, hLDLR; test: FACS: binding of bacterial viruses expressing peptides to CHO-hLDLR-GFP cells; design: expressed in transfected cells; settings: peptide expressed by bacterial virus clone, vs control bacterial viruses, 20 min at 4° C.
Experimental: Evaluation by FACS of the interaction between CHO-hLDLR-GFP cells and a clone of bacterial viruses expressing peptide SEQ ID NO: 11 with affinity for hLDLR compared with control bacterial viruses not expressing peptides with affinity for this receptor.
as §2, §3

hLDLR [6] = molecular target: T1, hLDLR; test: Immunocytochemistry: bacterial viruses on CHO-GFP (control) and CHO-hLDLR-GFP cell lines; type: binding; design: expressed in transfected cells; settings: CHO cell line expressing GFP alone; peptide expressed by bacterial virus clone
Text: CHO cell lines stably expressing A—GFP alone (green), and B—hLDLR-GFP (green), and immunostaining with an anti-viral envelope protein antibody of a clone of bacterial viruses expressing a peptide (SEQ ID NO: 1) with affinity for hLDLR (red dots). Cell nuclei are stained with Hoechst (blue, A1 and B1). GFP fluorescence is visible in green (A2 and B2), that of the staining of the viral envelope of the bacterial virus by the viral anti-protein antibody is visible in red (A3 and B3) and the superimposing of red and green stains is visible in yellow/orange (A4 and B4).
The bacterial virus clones identified following the binding of the peptides, which they express and which bind to hLDLR-GFP expressed by the stable CHO-hLDLR-GFP cell line, were brought together with LDLR cells and, after intensive washing, were detected with an antibody directed against the viral envelope protein of the bacterial virus followed by a second antibody coupled with Alexa 594 (FIG. 7).

[7] = system: mouse brain vessel endothelial cells; test: Tail vein injection of bacterial viruses in C57BL6 mice, immunostaining of brain sections; type: in vivo; settings: 15 min and 2 h post injection, peptide expressed by bacterial viruses
Experimental: Double immunofluorescent staining of frozen sections of C57BL6 mouse brain, 2 h after mouse tail vein injection of control bacterial viruses (A-B) and bacterial viruses expressing a peptide (SEQ ID NO: 1) with affinity for hLDLR and mLDLR (C-D). Brain vessels are stained with anti-mouse IgG, in green (A-C); bacterial viruses are stained with anti-viral envelope protein antibody, in red (B-D).
Bacterial viruses expressing peptides with affinity for hLDLR (SEQ ID NO: 1 is described here for example) and control bacterial viruses (not expressing peptide with affinity for hLDLR) were injected into the tail veins of C57BL6 mice anaesthetised with halothane. After 15 min and 2 h post injection, the mice were sacrificed and perfused with 0.9% NaCl. Brains, livers and kidneys were frozen in isopentane and frozen sections were prepared for double immunohistochemical staining to visualise blood vessels with anti-mouse IgG and anti-viral envelope protein antibody to visualise bacterial viruses bound to endothelial cells in vivo.

hLDLR [8] = molecular target: T1, hLDLR; test: FACS: binding of bacterial viruses expressing peptides to human fibroblasts; design: endogenous in cells; host or cells: HUVEC (human umbilical vein endothelial cells), not genetically modified; settings: peptide expressed by bacterial virus clone, vs control bacterial viruses
Experimental: Evaluation by FACS of the interaction between human fibroblasts and a clone of bacterial viruses expressing peptide SEQ ID NO: 12 with affinity for hLDLR, compared with control bacterial viruses not expressing peptides with affinity for this receptor.
as §2, §3

[9] = Pan et al., 2004; cited from earlier work
[10] = Demeule et al., 2008; cited from earlier work

T1 sequence (P01130 22-860): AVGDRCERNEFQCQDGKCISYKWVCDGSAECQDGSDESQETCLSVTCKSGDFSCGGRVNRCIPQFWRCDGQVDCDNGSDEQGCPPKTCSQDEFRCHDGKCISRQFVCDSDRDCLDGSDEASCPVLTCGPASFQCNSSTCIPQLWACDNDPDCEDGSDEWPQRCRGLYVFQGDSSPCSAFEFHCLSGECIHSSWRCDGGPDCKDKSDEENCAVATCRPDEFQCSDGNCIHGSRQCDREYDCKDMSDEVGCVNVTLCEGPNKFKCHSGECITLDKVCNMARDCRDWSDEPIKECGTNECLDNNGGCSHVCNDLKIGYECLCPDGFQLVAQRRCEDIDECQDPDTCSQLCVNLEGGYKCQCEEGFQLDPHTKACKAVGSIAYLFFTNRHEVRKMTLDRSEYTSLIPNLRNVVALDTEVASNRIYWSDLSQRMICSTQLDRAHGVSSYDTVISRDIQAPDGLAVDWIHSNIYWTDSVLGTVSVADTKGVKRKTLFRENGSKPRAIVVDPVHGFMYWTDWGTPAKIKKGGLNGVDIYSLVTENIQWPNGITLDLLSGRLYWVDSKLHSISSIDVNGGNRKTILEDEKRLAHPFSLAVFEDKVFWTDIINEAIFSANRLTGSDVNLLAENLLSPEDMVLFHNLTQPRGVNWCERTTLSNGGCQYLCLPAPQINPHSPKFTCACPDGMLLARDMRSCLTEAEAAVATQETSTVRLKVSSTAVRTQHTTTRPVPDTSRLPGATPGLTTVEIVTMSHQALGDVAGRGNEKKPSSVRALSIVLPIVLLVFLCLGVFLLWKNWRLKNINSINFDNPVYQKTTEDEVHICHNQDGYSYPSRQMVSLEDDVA

DSGLCMPRLRGCDPR [SEQ ID NO: 11]
Kin across the blood-retinal barrier (BRB) [1]: 1.2±0.2 ×10^−4 ml/s/g | Kin (brain transport or transfer coefficient) [2]: 3.5±0.2 ×10^−4 ml/s/g | effect of LDL on binding of peptides expressed by bacterial viruses (hLDLR [3]; FACS, LDL added): No effect | loss/shift of signal in Q2 on adding LDL (hLDLR [3]; peptide expressed by bacterial viruses, in the presence of LDL): 17% | shift of the signal in Q2 (FACS) (hLDLR [4]; peptide expressed by bacterial virus clone, vs control bacterial viruses): significant shift | percentage of shift of the fluorescence signal in zone Q2 (hLDLR [4]; peptide expressed by bacterial viruses, without LDL): greater than 70% | shift of the signal in Q2 (FACS) (hLDLR [5]): significant shift

HLDCMPRGCFRN [SEQ ID NO: 1]
binding of bacterial viruses to cells that do not express hLDLR (hLDLR [6]): do not bind | binding to brain vessel wall endothelial cells in vivo [7]: bind to vessel wall endothelial cells

MTVMPTGLWNPLIPS [SEQ ID NO: 12]
shift of the signal in Q2 (FACS) (hLDLR [8]): significant shift

RAP protein: RAP protein; literature Kin value
Kin [9]: 1e-05 mL/s/g

transferrin: transferrin, ligand of TfR; literature Kin value
Kin [10]: 0.0003 mL/s/g
